Km data for two compounds are collected here from patent US5849759A, “Naphthyl-substituted benzimidazole derivatives as anti-coagulants” (Berlex Laboratories, Inc., priority 1995, dated 1998).

SMILES strings stand for the structures. Where a SMILES comes first, the peptide text is derived from it. [ ]: non-standard residue; d: D form. The star is where a group is joined. pNA = O=[N+]([O-])c1ccc(N*)cc1

The target of test [1] is T1, Human tissue plasminogen activator (tPA) (Two chains, Sigma) (Homo sapiens, UniProt P00750).
T1 construct: purchased Sigma
T1 sequence (P00750 311-562 limits assumed): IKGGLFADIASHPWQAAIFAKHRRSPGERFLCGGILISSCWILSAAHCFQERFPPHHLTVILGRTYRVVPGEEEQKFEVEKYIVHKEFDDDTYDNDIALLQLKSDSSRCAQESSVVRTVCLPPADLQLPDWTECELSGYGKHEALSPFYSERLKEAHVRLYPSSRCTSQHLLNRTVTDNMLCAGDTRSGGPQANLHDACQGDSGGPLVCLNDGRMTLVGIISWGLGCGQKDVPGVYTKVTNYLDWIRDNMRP
T1 sequence (P00750 36-310 partner limits assumed): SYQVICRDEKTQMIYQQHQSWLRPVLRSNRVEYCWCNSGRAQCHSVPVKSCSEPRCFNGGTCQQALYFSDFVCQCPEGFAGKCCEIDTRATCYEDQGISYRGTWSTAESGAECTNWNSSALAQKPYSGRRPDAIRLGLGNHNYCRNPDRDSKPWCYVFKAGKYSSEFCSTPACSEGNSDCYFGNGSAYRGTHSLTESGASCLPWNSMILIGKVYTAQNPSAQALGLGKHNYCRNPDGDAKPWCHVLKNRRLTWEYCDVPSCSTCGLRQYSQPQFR
Put plainly: In vitro chromogenic assay for tissue plasminogen activator. Format: biochemical. Conditions: substrate concentration stated equal to Km under present assay conditions; pH 7.5, ambient temperature; read-out: Km (S2288). The procedure: (§1) The activities were determined as an initial rate of cleavage of the peptide p-nitroanilide by the enzyme. The cleavage product, p-nitroaniline, absorbs at 405 nm with a molar extinction coefficient of 9920M^-1 cm^-1.
(§2) 50 mM TrisHCl, 150 mM NaCl, 2.5 mM CaCl2, and 0.1% polyethylene glycol 6000, pH 7.5.
3. Human tissue plasminogen activator (tPA) (Two chains, Sigma) stock solution: 1 mg/mL, stored at -80° C. (working solution (2X): 1361 ng/mL in assay buffer, prepare prior to use).
3. S2288 (tPA assay) stock solution: 10 mM in dH2 O, stored at 4° C. (working solution (4X): 1484 μM in assay buffer). (All substrate working solutions were prepared on assay day […].)
Assays were performed in 96-well microtiter plates in a total volume of 200 μl. […] Concentrations of the standard inhibitor compound in the assay were from 5 μM to 0.021 μM in 1 to 3 dilution. Concentration of the test compounds in the assay typically were from 10 μM to 0.041 μM in 1 to 3 dilution. […]
(§3) The enzyme kinetics were measured at 405 nm, at 10 seconds interval, for five minutes in a THERMOmax plate reader at ambient temperature.
(§4) Enzyme rates were calculated as mOD/min based on the first two minutes readings. The IC50 values were determined by fitting the data to the log-logit equation (linear) or the Morrison equation (non-linear) with an EXCEL spread-sheet. […]

Test [2] has as its target T2, Human thrombin (factor IIa) (Homo sapiens, UniProt P00734).
T2 construct: Human thrombin stock solution; purchased Enzyme Research Lab
Kind of test: In vitro chromogenic assay for thrombin. Conditions: substrate concentration stated equal to Km under present assay conditions; pH 7.5, ambient temperature; read-out: Km (S2302). In kind it is biochemical. The procedure:
as §1, §2
2. Human thrombin stock solution: Stored at -80° C. (working solution (2X): 1200 ng/mL or 40 nM in assay buffer, prepare prior to use).
2. S2302 (Thrombin assay) stock solution: 10 mM in dH2 O, stored at 4° C. (working solution (4X): 1200 μM in assay buffer).
Assays were performed in 96-well microtiter plates in a total volume of 200 μl. […] Concentrations of the standard inhibitor compound in the assay were from 5 μM to 0.021 μM in 1 to 3 dilution. Concentration of the test compounds in the assay typically were from 10 μM to 0.041 μM in 1 to 3 dilution. For potent test compounds, the concentrations used in the factor Xa assay were further diluted 100 fold (100 nM to 0.41 nM) or 1000 fold (10 nM to 0.041 nM). […]
as §3, §4

Consider `CC[C@@H](C)[C@@H](N)C(=O)N1CCC[C@H]1C(=O)N[C@@H](CCCN=C(N)N)C(=O)Nc1ccc([N+](=O)[O-])cc1` [S2288] (H-[dI]-Pro-Arg-pNA), for which the Michaelis constant (Km) in test [1] amounted to 371 µM.
With `N=C(N)NCCC[C@H](NC(=O)[C@H](Cc1ccccc1)NC(=O)[C@H]1CCCN1)C(=O)Nc1ccc([N+](=O)[O-])cc1` [S2302] (H-[dP]-Phe-Arg-pNA), in test [2], the Km was found to be 300 µM.

The Km is the substrate concentration at which the rate is half of its maximum.
